# Patent US6383479B1, “Neutrophil-activating factor” (Novartis AG, priority 1987, dated 2002)
# Starred links: 1 amine or outer side, 2 acyl side, 3 side chain; linkers in the order of their positions; H or OH if unused. Positions of bridges follow the written chain, without caps; N, C: chain ends. Non-standard residues stand in square brackets, D forms with d. Residues, ends and D or L forms follow the SMILES beside them. Chains are numbered I, II in the order given. Actinocin(9to1) = Cc1c2oc3c(C)ccc(C(=O)[*:1])c3nc-2c(C(=O)[*:2])c(N)c1=O; NMeV = CN[C@H](C(=O)O)C(C)C; Sar = CNCC(=O)O
# How the values were obtained:
# human neutrophils [1] = details: Wymann et al., J. Biol. Chem. 262 [1987] 12048; cited from earlier work
# human neutrophils [2] = test: superoxide formation (SOD-sensitive cytochrome c reduction) by human neutrophils; assay type: cell-based; details: 1 μm PAF for 2 minutes
# Method: a) Superoxide production: neutrophils (3×10^6 /ml) are preincubated at 37° with or without 1 μm PAF for 2 minutes and then stimulated with increasing amounts of NAF. Recordings of cytochrome c reduction following NAF addition are shown.
# Superoxide formation is measured at 37° as the SOD sensitive reduction of ferricytochrome c (M. Markert et al., Methods Enzymol. 132 [1984] 267). The assay mixture (800 μl) consists of 0.75×10^6 cells/ml PBS-BSA containing 85 μM cytochrome c. Absorbance changes are recorded in a Hewlett-Packard 8451A diode array spectrophotometer equipped with a thermostated seven-place cuvette exchanger. Table 4 documents the capacity of NAF to elicit the respiratory burst in human neutrophils: […]
# [3] = system: New Zealand albino rabbits; test: neutrophil accumulation and plasma leakage in rabbit skin after intradermal injection; assay type: in vivo; details: 2 h; for effect on neutrophil accumulation induced by NAF: NAF 10^−9 moles; for effect on neutrophil accumulation induced by fMLP: fMLP 10^−9 moles
# Excerpt: Inflammatory responses are examined in the skin of conscious 2.0 to 2.5 kg New Zealand albino rabbits. Erythrocytes in blood from donor rabbits are sedimented with hydroxyethyl cellulose (Polysciences, Warrington, Pa.) and neutrophils in the resultant leucocyte-rich plasma are purified (>94% neutrophils) by density gradient centrifugation on Percoll (Pharmacia, Uppsala, Sweden). Cells are resuspended in Ca^2+ and Mg^2+—free Tyrode's solution containing 10% platelet poor plasma to a concentration of 10^6 leukocytes/ml and labeled for 15 min at room temperature with 40 μCi ^111indium-oxine (Amersham) per 10^6 cells. The labeled cells are washed by centrifugation through 10% platelet-poor plasma and approximately 10^6 cells per recipient are mixed with 10 μCi ^125iodine-labeled human serum albumin (Amersham) and injected intravenously through the lateral ear vein of rabbits with inflammatory lesions under study. Intradermal injections of inflammatory agents are then made and animals are killed 2 h later in studies with actinomycin D and polymyxin B, and 4 h later in dose-response experiments. Midway through the period that radiolabeled cells are in circulation, a blood sample is collected and the specific activities of neutrophils and plasma in blood are determined. Radioactivity in inflammatory lesions at the end of each experiment are determined in a multichannel gamma counter, the activity in control skin sites is subtracted and the absolute number of neutrophils and volume of plasma accumulating in inflammatory lesions are calculated from the specific activities. Neutrophil numbers in inflammatory lesions are standardised between animals by expressing the results as cell number per 10^6 neutrophils circulating per ml peripheral blood, according to the method of Cybulsky et al., Am. J. Pathol. 124 [1986] 367.
# Recombinant NAF obtained as described under Example 19 is dissolved at 400 μg/ml in minimal essential medium (50 mM) plus 0.45 M NaCl (pH 6.5). Endotoxin (E. coli serotype 055:B5, Sigma, St. Louis, Mo.) is dissolved in pyrogen-free normal saline. fMLP is dissolved in dimethyl sulphoxide at 10^−2 M and diluted to working concentrations in PFS. Polymyxin B and actinomycin D are dissolved in 1 ml ethanol and diluted 20 fold by mixing with NAF, endotoxin or fMLP in PFS. In studies on inhibition of inflammatory responses 40 μg polymyxin B and 10^−7 moles actinomycin D are injected per skin site with […] endotoxin. In all experiments 0.2 ml of inflammatory agents are injected intradermally per site through 26 gauge needles, with 5 replicates of each treatment in each animal.
# Rabbit neutrophils = test: NAF-induced exocytosis in rabbit neutrophils (N-acetyl-β-glucosaminidase release); assay type: cell-based; details: stimulus 100.0 nM, 15 min, cytochalasin B pretreated; purified natural NAF
# Method: Rabbit neutrophils are isolated from peripheral blood (obtained from the ear vein or artery) by dextran sedimentation followed by Hypaque-Ficoll density gradient centrifugation. Purified natural NAF is used.
# Exocytosis conditions: 0.6×10^6 cells (in a total volume of 0.15 ml) pretreated with cytochalasin B for 5 min at 37° are stimulated with NAF (0.1-100 nM) or fMLP (100 nM) for 15 min. N-acetyl-β-glucosaminidase, an azurophil granule marker, is determined in the cell-free medium.
# human neutrophils [4] = test: hydrogen peroxide formation by chemiluminescence in human neutrophils; assay type: cell-based
# Method: b) H2O2-dependent chemiluminescence: the progress curves following stimulation with partially purified NAF and approximately equiactive concentrations of C5a and fMLP are shown on the left. The initial phase of the response is detailed on the right. The stimulants are added in 50 μl of PBS-BSA.
# Lower graphs: respiratory burst induced by natural (left) and recombinant (right) NAF. Neutrophils (10^6 cells/ml) are stimulated with 3, 10 and 30 nM NAF at time zero and hydrogen peroxide production is measured by chemiluminescence (M. P. Wymann et al., Anal. Biochem. 165 [1987] 371-378).
# The properties of NAF, fMLP and C5a as stimuli of the respiratory burst are compared by assessing the production of superoxide or hydrogen peroxide by the stimulated cells. Superoxide formation is determined as described in Example 13. Hydrogen peroxide formation is determined by chemiluminescence (M. P. Wymann et al., Anal. Biochem. 165 [1987] 371-378). The assay mixture consisting of PBS-BSA containing 0.1 M sodium azide, 0.01 mM luminol, 9 U/ml horseradish peroxidase and 10^6 neutrophils is preincubated for 10 min at 37° and the reaction is started by adding the stimulus via a microsyringe.
# human neutrophils [5] = test: stimulus-dependent exocytosis of granule contents by human neutrophils; assay type: cell-based; details: fMLP 0.1 μM
# Method: Neutrophils (5×10^6/ml) suspended in PBS/BSA are preincubated with or without cytochalasin B (5 μg/ml) at 37° for 5 min.
# Granule release is then initiated by adding the stimulus, e.g. NAF or a standard stimulus. The reaction is stopped 15 min later by rapid cooling in ice followed by centrifugation to sediment the cells. Vitamin B12-binding protein, β-glucuronidase and lactate dehydrogenase are determined in the cell-free media and cell pellets, and the release of these constituents is calculated in percent of the total cellular content (B. Dewalt and M. Baggiolini, Methods Enzymol. 132 [1986] 267).
# Natural and recombinant NAF are tested in parallel on human neutrophils. They elicit virtually identical changes in cytosolic free Ca^2+, yielding a maximum rise at a concentration as low as 3 nM (FIG. 15). A nearly identical concentration-dependent respiratory burst response is obtained with both preparations in the range of 1 to 30 nM as assessed by chemiluminescence. The equivalence between natural and recombinant NAF is also reflected by chemotaxis and exocytosis measurements. Chemotactic migration is observed between 0.1 and 10 nM with a maximum effect at 1 nM. (Table 6). With either peptide a significant release of vitamin B12-binding protein from the specific granules at 0.3 nM and of beta-glucuronidase from the azurophil granules at 1 nM is observed.
# human monocytes = test: NAF production by stimulated human mononuclear cells/monocytes (read out as elastase release); assay type: cell-based; details: mononuclear cell fraction; PHA 5 μg/ml or ConA 10 μg/ml
# Method: […] At various time intervals the media are collected, cleared by centrifugation (20000 rpm for 20 min. at 4° C.) and NAF activity is measured. Cells from a single donor; means of duplicate cultures.
# Human monocytes are isolated from buffy coats of donor blood (Swiss Red Cross Laboratory, Bern, Switzerland) by centrifugation through a Ficoll-Paque gradient. This method separates neutrophils from the so-called mononuclear cells, a mixture of monocytes (about 20%) and lymphocytes (about 80%). Three monocyte preparations are used: (i) the total mononuclear cell fraction, (ii) monocytes enriched from the mononuclear cell fraction by adherence, and (iii) 90% pure monocytes separated from the lymphocytes by centrifugal elutriation (G. Garotta et al., Biochem. Biophys. Res. Comm. 140 [1986] 948-954 and K. J. Clemetson et al., J. Exp. Med. 161 [1985] 972-983). […] At different times, aliquots of the culture media are sampled and NAF activity is determined as the capacity to induce the release of elastase from human neutrophils pretreated with cytochalasin B (B. Dewald et al., Biochem. Pharmacol. 36 [1987] 2505-2510).
# Mononuclear cell cultures (5×10^6 cells/ml) consisting of monocytes and lymphocytes in a ratio of approximately 1:5 produce NAF when stimulated with LPS (100 ng/ml). NAF accumulates in the medium over 24 h and the production levels off between 24 h and 48 h. […]
# neutrophils = test: sequential/repeated stimulation of neutrophils (desensitization, superoxide formation); assay type: cell-based, human; details: superoxide formation
# Method: a) Neutrophils (3×10^6 /ml) are preincubated at 37° C. for 5 min. and then stimulated with different agonists as indicated (arrows).
# b) Sequential or repeated stimulation with NAF and C5a. Conditions as in a).
# Arrows show addition of agonists as indicated. The concentration of C5a is 0.5 nM in a) and 0.2 nM in b), that of fMLP is 20 nM in both experiments. The agonists are added in 50 μl of PBS-BSA.
# On the other hand, when agonists acting on different receptors are used in sequence.(e.g. fMLP followed by C5a) these stimulations yield a normal response. Experiments of this type are therefore used to find out whether NAF acts by its own receptor or via a receptor also used by other agonists.
# [6] = exposure to fresh human serum, then activity (superoxide production); assay type: in vitro ADME; details: 15 minutes with fresh human serum
# Method: C5A and NAF are incubated for 15 minutes with fresh human serum or with PBS and the activity of the preparations is determined (superoxide production).
# Since C5a and NAF have similar effects on neutrophils, further experiments must be performed to discriminate entirely between the two. Samples of NAF and C5a are exposed to fresh human serum.
# [7] = with CB (cytochalasin B 5 μg/ml)
molecule,measurement,setting,value
"1-0-hexadecyl-2-0-acetyl-sn-glycero-3-phosphocholine [PAF, reference compound]","time between stimulus addition and onset of H2O2 production, as previously reported",human neutrophils [1],about 2 sec
same,effect of pretreatment of the cells with PAF on the superoxide response to NAF,human neutrophils [2],markedly enhanced
"Cc1c2oc3c(C)ccc(C(=O)N[C@@H]4C(=O)N[C@H](C(C)C)C(=O)N5CCC[C@H]5C(=O)N(C)CC(=O)N(C)[C@@H](C(C)C)C(=O)O[C@@H]4C)c3nc-2c(C(=O)N[C@@H]2C(=O)N[C@H](C(C)C)C(=O)N3CCC[C@H]3C(=O)N(C)CC(=O)N(C)[C@@H](C(C)C)C(=O)O[C@@H]2C)c(N)c1=O [actinomycin D] (I: T[dV]P[Sar][NMeV] / II: T[dV]P[Sar][NMeV]; ester I:1-I:C, II:1-II:C; linker I:N-II:N via Actinocin(9to1))",effect on neutrophil accumulation induced by NAF,[3]; actinomycin D 10^−7 moles/site,no effect
same,inhibition of neutrophil accumulation induced by endotoxin,"[3]; actinomycin D 10^−7 moles/site, endotoxin 10^−13 moles",90%
same,effect on neutrophil accumulation induced by fMLP,[3]; actinomycin D 10^−7 moles/site,no effect
"CSCC[C@H](NC=O)C(=O)N[C@@H](CC(C)C)C(=O)N[C@@H](Cc1ccccc1)C(=O)O [fMLP, N-formyl-L-methionyl-L-leucyl-L-phenylalanine, reference compound]","time between stimulus addition and onset of H2O2 production, as previously reported",human neutrophils [1],about 2 sec
same,N-acetyl-β-glucosaminidase,Rabbit neutrophils,181 pmol/min
same,time between stimulus addition and onset of H2O2 production,human neutrophils [4],about 2 sec
same,Percent release of Vit. B12-binding protein,human neutrophils [5]; [7],35.6 ± 5.5%
same,Percent release of lactate dehydrogenase,human neutrophils [5]; [7],5.3 ± 1.6%
same,Percent release of β-glucuronidase,human neutrophils [5]; [7],12.1 ± 4.4%
same,Percent release of Vit. B12-binding protein,human neutrophils [5]; without CB,14.0 ± 0.9%
same,Percent release of lactate dehydrogenase,human neutrophils [5]; without CB,5.7 ± 1.1%
same,Percent release of β-glucuronidase,human neutrophils [5]; without CB,2.3 ± 0.8%
CCCCC/C=C\C[C@@H](O)/C=C/C=C/C=C\[C@@H](O)CCCC(=O)O [leukotriene B4],"time between stimulus addition and onset of H2O2 production, as previously reported",human neutrophils [1],about 2 sec
Polymyxin B,effect on neutrophil accumulation induced by NAF,[3]; polymyxin B 40 μg/site,without effect
same,inhibition of the response to endotoxin,"[3]; polymyxin B 40 μg/site, endotoxin 10^−13 moles",84%
same,effect on neutrophil accumulation induced by fMLP,[3]; polymyxin B 40 μg/site,without effect
concanavalin A [ConA],time at which maximum of NAF production is reached,human monocytes,about 24 h
phytohemagglutinin [PHA],time at which maximum of NAF production is reached,human monocytes,about 24 h
"C5a: anaphylatoxin (protein, UniProt P01031 678-751, looked up, C5a anaphylatoxin) C5a anaphylatoxin: TLQKKIEEIAAKYKHSVVKKCCYDGACVNNDETCEQRAARISLGPRCIKAFTECCVVASQLRANISHKDMQLGR","time between stimulus addition and onset of H2O2 production, as previously reported",human neutrophils [1],about 2 sec
same,desensitization to a second stimulation with the same agonist,neutrophils,complete desensitization
same,time between stimulus addition and onset of H2O2 production,human neutrophils [4],about 2 sec
same,effect of serum treatment on activity,[6],completely abolishes
